Measurements published in ChEMBL document CHEMBL3870304 (Eur J Med Chem, 2016).

Assays:
cells [1] = conditions: Homo sapiens, KARPAS-299, 72 h
Description: Cytotoxicity against human KARPAS299 cells harboring NPM-ALK assessed as reduction in cell proliferation after 72 hrs by MTT assay

cells [2] = conditions: Homo sapiens, HT-29, 72 h
Description: Cytotoxicity against human HT-29 cells assessed as reduction in cell proliferation after 72 hrs by MTT assay

cells [3] = conditions: Homo sapiens, NCI-H460, 72 h
Description: Cytotoxicity against human NCI-H460 cells assessed as reduction in cell proliferation after 72 hrs by MTT assay

cells [4] = conditions: Homo sapiens, HCC78, 72 h
Description: Cytotoxicity against human HCC78 cells harboring SLC34A2-ROS1 assessed as reduction in cell proliferation after 72 hrs by MTT assay

cells [5] = conditions: Homo sapiens, A549, 72 h
Description: Cytotoxicity against human A549 cells assessed as reduction in cell proliferation after 72 hrs by MTT assay

[6] = target: Hepatocyte growth factor receptor (Homo sapiens, UniProt P08581)
Description: Inhibition of c-Met (unknown origin) using peptide as substrate after 60 mins by HTRF assay

[7] = target: ALK tyrosine kinase receptor (Homo sapiens, UniProt Q9UM73, L1196M)
[8] = target: Epidermal growth factor receptor (Homo sapiens, UniProt P00533)
Description: Inhibition of EGFR (unknown origin) using peptide as substrate after 60 mins by HTRF assay

[9] = target: T1, ALK tyrosine kinase receptor (Homo sapiens, UniProt Q9UM73)
Target sequence in this assay (Q9UM73 whole entry): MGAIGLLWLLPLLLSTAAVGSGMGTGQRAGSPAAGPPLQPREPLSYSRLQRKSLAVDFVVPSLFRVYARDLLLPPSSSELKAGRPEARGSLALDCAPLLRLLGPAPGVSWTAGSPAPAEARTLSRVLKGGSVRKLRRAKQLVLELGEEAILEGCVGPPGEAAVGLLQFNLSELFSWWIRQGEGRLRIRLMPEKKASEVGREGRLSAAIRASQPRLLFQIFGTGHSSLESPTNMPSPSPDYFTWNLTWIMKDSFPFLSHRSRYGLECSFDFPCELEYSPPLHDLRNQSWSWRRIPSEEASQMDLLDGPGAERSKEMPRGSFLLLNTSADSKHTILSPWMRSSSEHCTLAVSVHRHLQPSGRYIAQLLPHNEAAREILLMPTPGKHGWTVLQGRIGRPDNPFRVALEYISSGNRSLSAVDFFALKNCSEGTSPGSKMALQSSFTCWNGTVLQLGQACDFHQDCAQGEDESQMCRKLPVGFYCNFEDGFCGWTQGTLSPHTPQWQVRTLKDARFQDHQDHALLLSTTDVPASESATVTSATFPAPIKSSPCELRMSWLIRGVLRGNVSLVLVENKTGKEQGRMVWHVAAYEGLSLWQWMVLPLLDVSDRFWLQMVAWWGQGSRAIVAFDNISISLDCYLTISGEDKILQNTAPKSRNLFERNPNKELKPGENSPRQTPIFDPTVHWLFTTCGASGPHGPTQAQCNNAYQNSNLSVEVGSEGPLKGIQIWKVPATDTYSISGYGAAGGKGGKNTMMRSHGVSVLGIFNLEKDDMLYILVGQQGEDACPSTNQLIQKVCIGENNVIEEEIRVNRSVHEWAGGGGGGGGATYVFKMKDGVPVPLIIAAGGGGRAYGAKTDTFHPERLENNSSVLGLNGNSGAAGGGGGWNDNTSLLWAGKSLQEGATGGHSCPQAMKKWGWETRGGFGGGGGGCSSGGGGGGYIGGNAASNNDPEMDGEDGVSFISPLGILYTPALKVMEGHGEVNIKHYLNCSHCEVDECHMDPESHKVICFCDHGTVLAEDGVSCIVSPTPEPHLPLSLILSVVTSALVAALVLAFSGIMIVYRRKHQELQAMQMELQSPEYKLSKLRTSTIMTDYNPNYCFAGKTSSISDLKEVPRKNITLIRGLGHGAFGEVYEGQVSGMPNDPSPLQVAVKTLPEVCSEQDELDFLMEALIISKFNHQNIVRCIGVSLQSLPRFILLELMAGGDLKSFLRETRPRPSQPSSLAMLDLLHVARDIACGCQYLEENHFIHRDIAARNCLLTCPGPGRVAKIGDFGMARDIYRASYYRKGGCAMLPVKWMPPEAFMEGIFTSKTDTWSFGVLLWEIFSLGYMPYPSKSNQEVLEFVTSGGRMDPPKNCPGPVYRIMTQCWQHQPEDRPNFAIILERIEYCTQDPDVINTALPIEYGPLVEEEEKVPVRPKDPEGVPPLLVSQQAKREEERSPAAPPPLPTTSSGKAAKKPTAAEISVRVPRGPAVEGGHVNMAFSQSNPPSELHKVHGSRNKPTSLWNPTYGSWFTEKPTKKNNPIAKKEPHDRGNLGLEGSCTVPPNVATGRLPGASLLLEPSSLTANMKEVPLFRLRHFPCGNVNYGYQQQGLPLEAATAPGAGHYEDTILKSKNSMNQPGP
Description: Inhibition of ALK (unknown origin) using peptide as substrate after 60 mins by HTRF assay

[10] = target: Proto-oncogene tyrosine-protein kinase ROS (Homo sapiens, UniProt P08922)
Description: Inhibition of ROS1 (unknown origin) using peptide as substrate after 60 mins by HTRF assay

[11] = system: ALK tyrosine kinase receptor (Homo sapiens), Q9UM73 [L1196M]; experiment: Potency index, ratio of crizotinib IC50 to compound IC50 for ALK L1196M mutant (unknown origin)
KARPAS-299 = experiment: Potency index, ratio of crizotinib IC50 to compound IC50 against human KARPAS299 cells harboring NPM-ALK; assay type: functional
HCC78 = experiment: Potency index, ratio of crizotinib IC50 to compound IC50 against human HCC78 cells harboring SLC34A2-ROS1; assay type: functional
[12] = target: T1, ALK tyrosine kinase receptor; experiment: Potency index, ratio of crizotinib IC50 to compound IC50 for ALK (unknown origin)

Chain of ALK tyrosine kinase receptor (Homo sapiens), Q9UM73 [L1196M] (Q9UM73 whole entry L1196M, looked up): as the sequence (Q9UM73 whole entry) above, with L1196M counted along it
Chain of Proto-oncogene tyrosine-protein kinase ROS (P08922 whole entry): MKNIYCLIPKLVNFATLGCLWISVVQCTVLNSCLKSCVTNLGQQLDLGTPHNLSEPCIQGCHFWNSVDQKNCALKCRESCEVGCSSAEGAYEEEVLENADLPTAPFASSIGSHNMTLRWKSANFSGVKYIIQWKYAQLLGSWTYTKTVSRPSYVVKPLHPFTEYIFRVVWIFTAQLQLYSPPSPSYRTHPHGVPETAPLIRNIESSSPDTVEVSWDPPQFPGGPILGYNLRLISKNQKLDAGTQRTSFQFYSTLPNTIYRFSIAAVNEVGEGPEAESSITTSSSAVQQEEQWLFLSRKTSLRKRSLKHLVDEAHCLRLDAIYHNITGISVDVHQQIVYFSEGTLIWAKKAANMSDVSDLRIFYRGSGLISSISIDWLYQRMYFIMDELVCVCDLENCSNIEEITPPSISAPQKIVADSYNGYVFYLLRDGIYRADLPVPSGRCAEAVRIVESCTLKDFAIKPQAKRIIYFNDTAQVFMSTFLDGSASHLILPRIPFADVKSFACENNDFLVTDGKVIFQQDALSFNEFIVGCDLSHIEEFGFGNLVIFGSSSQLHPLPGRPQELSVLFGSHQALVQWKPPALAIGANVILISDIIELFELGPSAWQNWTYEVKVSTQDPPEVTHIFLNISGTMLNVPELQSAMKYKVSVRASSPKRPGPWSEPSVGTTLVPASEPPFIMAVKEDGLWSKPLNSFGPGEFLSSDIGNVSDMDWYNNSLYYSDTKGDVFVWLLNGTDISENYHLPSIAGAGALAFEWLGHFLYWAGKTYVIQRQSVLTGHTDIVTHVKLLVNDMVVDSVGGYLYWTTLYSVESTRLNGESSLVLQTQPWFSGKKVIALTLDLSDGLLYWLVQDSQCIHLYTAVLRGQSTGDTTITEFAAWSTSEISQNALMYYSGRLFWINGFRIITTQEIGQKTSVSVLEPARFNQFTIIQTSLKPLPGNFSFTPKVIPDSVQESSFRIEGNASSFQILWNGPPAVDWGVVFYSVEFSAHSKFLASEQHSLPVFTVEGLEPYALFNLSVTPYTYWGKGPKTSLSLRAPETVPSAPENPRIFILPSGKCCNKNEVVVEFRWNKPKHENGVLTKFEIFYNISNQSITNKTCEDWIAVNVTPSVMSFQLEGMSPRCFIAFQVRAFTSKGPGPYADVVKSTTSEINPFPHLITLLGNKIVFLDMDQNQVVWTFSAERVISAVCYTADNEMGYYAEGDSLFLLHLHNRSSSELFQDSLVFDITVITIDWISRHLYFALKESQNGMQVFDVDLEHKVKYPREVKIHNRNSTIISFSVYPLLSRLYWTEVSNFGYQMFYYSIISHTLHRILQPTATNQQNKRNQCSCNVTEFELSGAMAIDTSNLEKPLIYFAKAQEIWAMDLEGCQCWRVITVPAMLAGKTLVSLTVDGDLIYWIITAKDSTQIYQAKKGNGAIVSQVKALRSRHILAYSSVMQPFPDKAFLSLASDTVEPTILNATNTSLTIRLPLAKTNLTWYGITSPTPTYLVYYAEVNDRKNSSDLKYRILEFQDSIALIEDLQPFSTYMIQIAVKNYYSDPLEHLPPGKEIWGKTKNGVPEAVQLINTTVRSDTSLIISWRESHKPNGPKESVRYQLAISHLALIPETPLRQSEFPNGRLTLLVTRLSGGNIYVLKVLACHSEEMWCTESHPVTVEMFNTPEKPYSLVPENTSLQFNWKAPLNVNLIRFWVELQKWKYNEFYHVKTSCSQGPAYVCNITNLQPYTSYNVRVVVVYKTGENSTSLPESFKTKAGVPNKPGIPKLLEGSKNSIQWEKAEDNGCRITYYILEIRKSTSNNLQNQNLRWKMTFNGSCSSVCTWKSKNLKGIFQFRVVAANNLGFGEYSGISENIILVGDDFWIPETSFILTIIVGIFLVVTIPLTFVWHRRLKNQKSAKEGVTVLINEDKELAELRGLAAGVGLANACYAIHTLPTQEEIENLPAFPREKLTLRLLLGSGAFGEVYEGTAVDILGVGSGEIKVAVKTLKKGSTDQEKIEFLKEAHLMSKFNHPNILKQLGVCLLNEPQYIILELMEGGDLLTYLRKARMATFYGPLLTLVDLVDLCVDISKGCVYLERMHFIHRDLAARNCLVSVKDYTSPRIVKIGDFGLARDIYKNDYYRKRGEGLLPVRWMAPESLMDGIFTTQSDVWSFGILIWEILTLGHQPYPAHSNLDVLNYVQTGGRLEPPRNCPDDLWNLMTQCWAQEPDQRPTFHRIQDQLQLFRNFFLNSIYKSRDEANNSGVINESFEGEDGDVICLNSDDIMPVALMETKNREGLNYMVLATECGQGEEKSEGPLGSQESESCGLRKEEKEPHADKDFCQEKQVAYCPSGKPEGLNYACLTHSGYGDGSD

Structure (SMILES) | IC50 (cells [1]) | IC50 (cells [2]) | IC50 (cells [3]) | IC50 (cells [4]) | IC50 (cells [5]) | IC50 [6] | IC50 [7] | IC50 [8] | IC50 [9] | IC50 [10] | Ratio IC50 [11] | Ratio IC50 [12] | Ratio IC50 (KARPAS-299) | Ratio IC50 (HCC78)
CC(C)S(=O)(=O)c1ccccc1Nc1nc(N/N=C/c2ccc(Br)cc2)ncc1Cl | 1440 nM | 2300 nM | 3130 nM | 950 nM | 1310 nM |  |  |  |  |  |  |  |  | 
CC(C)S(=O)(=O)c1ccccc1Nc1nc(N/N=C/c2ccc(C(F)(F)F)cc2)ncc1Cl | 35 nM | 1120 nM | > 10000 nM | 82 nM | 940 nM | 380 nM | 73 nM | 593 nM | 3.6 nM | 3.4 nM | 20 |  |  | 
CC(C)S(=O)(=O)c1ccccc1Nc1nc(N/N=C/c2ccccc2)ncc1Cl | 250 nM | 1320 nM | 1480 nM | 470 nM | 1230 nM |  |  |  |  |  |  |  |  | 
C/C(=N\Nc1ncc(Cl)c(Nc2ccccc2S(=O)(=O)C(C)C)n1)c1ccc(F)cc1 | 20 nM | > 10000 nM | > 10000 nM | 28 nM | > 10000 nM | > 1000 nM | 67 nM | > 1000 nM | 2.5 nM | 2.7 nM | 20 | 9 | 2.4 | 11.1
CC(C)S(=O)(=O)c1ccccc1Nc1nc(N/N=C/c2ccccc2Cl)ncc1Cl | 5620 nM | > 10000 nM | 7120 nM | 6300 nM | 7900 nM |  |  |  |  |  |  |  |  | 
C/C(=N\Nc1ncc(Cl)c(Nc2ccccc2S(=O)(=O)C(C)C)n1)c1ccccc1F | 540 nM | > 10000 nM | 7150 nM | 600 nM | > 10000 nM |  |  |  |  |  |  |  |  | 
COc1ccc(/C=N/Nc2ncc(Cl)c(Nc3ccccc3S(=O)(=O)C(C)C)n2)cc1 | 28 nM | 1130 nM | 1320 nM | 20 nM | 580 nM | 157 nM | 82 nM | 587 nM | 4.8 nM | 2.3 nM | 20 |  |  | 
C/C(=N\Nc1ncc(Cl)c(Nc2ccccc2S(=O)(=O)C(C)C)n1)c1ccc(Br)cc1 | 2500 nM | > 10000 nM | > 10000 nM | 2380 nM | 4840 nM |  |  |  |  |  |  |  |  | 
CC(C)S(=O)(=O)c1ccccc1Nc1nc(N/N=C/c2cccc(C(F)(F)F)c2)ncc1Cl | 65 nM | 5500 nM | > 10000 nM | 80 nM | 3340 nM | 479 nM | 69 nM | 460 nM | 5.5 nM | 5 nM | 20 |  |  | 
CSc1ccc(/C(C)=N/Nc2ncc(Cl)c(Nc3ccccc3S(=O)(=O)C(C)C)n2)cc1 | 490 nM | 5430 nM | > 10000 nM | 850 nM | > 10000 nM |  |  |  |  |  |  |  |  | 
Cc1ccc(/C=N/Nc2ncc(Cl)c(Nc3ccccc3S(=O)(=O)C(C)C)n2)cc1 | 1620 nM | > 10000 nM | 1650 nM | 1730 nM | 4420 nM |  |  |  |  |  |  |  |  | 
CC(C)S(=O)(=O)c1ccccc1Nc1nc(N/N=C/c2cccs2)ncc1Cl | 910 nM | 880 nM | 570 nM | 880 nM | 470 nM |  |  |  |  |  |  |  |  | 
CC(C)S(=O)(=O)c1ccccc1Nc1nc(N/N=C/c2ccc(OC(F)(F)F)cc2)ncc1Cl | 30 nM | 1930 nM | 1200 nM | 31 nM | 980 nM | 393 nM | 79 nM | 898 nM | 5.5 nM | 5.5 nM | 20 |  |  | 
CC(C)S(=O)(=O)c1ccccc1Nc1nc(N/N=C/c2cccnc2)ncc1Cl | 930 nM | 830 nM | 1530 nM | 970 nM | 1150 nM |  |  |  |  |  |  |  |  | 
CC(C)S(=O)(=O)c1ccccc1Nc1nc(N/N=C/c2ccc(Cl)cc2)ncc1Cl | 1320 nM | 8190 nM | 2900 nM | 1700 nM | 2930 nM |  |  |  |  |  |  |  |  | 
C/C(=N\Nc1ncc(Cl)c(Nc2ccccc2S(=O)(=O)C(C)C)n1)c1ccc(C)cc1 | 2230 nM | > 10000 nM | > 10000 nM | 2840 nM | > 10000 nM |  |  |  |  |  |  |  |  | 
Cc1cc(Nc2ncc(Cl)c(Nc3ccccc3S(=O)(=O)C(C)C)n2)c(OC(C)C)cc1C1CCNCC1 [CERITINIB] | 27 nM | > 10000 nM | > 10000 nM | 18 nM | > 10000 nM |  |  |  |  |  |  |  |  | 
COc1cc(/C=N/Nc2ncc(Cl)c(Nc3ccccc3S(=O)(=O)C(C)C)n2)cc(OC)c1OC | 20 nM | 2150 nM | 1230 nM | 19 nM | 1150 nM |  |  |  |  |  |  |  |  | 
CC(C)S(=O)(=O)c1ccccc1Nc1nc(N/N=C/c2ccccc2F)ncc1Cl | 450 nM | 1420 nM | 1230 nM | 360 nM | > 10000 nM |  |  |  |  |  |  |  |  | 
CC(C)S(=O)(=O)c1ccccc1Nc1nc(N/N=C/c2ccc(S(C)(=O)=O)cc2)ncc1Cl | 240 nM | 1100 nM | 2020 nM | 310 nM | 1330 nM |  |  |  |  |  |  |  |  | 
CC(C)S(=O)(=O)c1ccccc1Nc1nc(N/N=C/c2ccc(F)cc2F)ncc1Cl | 100 nM | > 10000 nM | 3360 nM | 110 nM | 2280 nM |  |  |  |  |  |  |  |  | 
CSc1ccc(/C=N/Nc2ncc(Cl)c(Nc3ccccc3S(=O)(=O)C(C)C)n2)cc1 | 280 nM | 980 nM | 320 nM | 210 nM | 880 nM |  |  |  |  |  |  |  |  | 

Further compounds by falling IC50 (cells [1]), results first:

IC50 (cells [1]) | IC50 (cells [2]) | IC50 (cells [3]) | IC50 (cells [4]) | IC50 (cells [5]) | IC50 [6] | IC50 [7] | IC50 [8] | IC50 [9] | IC50 [10] | Ratio IC50 [11] | Ratio IC50 [12] | Structure (SMILES) | Ratio IC50 (KARPAS-299) | Ratio IC50 (HCC78)
6930 nM | > 10000 nM | > 10000 nM | 4160 nM | 7040 nM |  |  |  |  |  |  |  | COc1ccccc1/C=N/Nc1ncc(Cl)c(Nc2ccccc2S(=O)(=O)C(C)C)n1 |  | 
2970 nM | 1720 nM | > 10000 nM | 1980 nM | 9250 nM |  |  |  |  |  |  |  | CC(C)S(=O)(=O)c1ccccc1Nc1nc(N/N=C/c2ccc([N+](=O)[O-])cc2)ncc1Cl |  | 
1400 nM | 1030 nM | > 10000 nM | 1200 nM | 1090 nM |  |  |  |  |  |  |  | CC(C)S(=O)(=O)c1ccccc1Nc1nc(N/N=C/c2cccc(Br)c2)ncc1Cl |  | 
870 nM | 980 nM | 1130 nM | 820 nM | 1420 nM |  |  |  |  |  |  |  | CC(C)S(=O)(=O)c1ccccc1Nc1nc(N/N=C/c2ccncc2)ncc1Cl |  | 
750 nM | 3100 nM | 1030 nM | 2520 nM | 1940 nM |  |  |  |  |  |  |  | CC(C)S(=O)(=O)c1ccccc1Nc1nc(N/N=C/c2ccco2)ncc1Cl |  | 
440 nM | 2120 nM | > 10000 nM | 670 nM | 1650 nM |  |  |  |  |  |  |  | C/C(=N\Nc1ncc(Cl)c(Nc2ccccc2S(=O)(=O)C(C)C)n1)c1ccc(F)cc1F |  | 
340 nM | 2960 nM | 2830 nM | 270 nM | 2510 nM |  |  |  |  |  |  |  | CC(C)S(=O)(=O)c1ccccc1Nc1nc(N/N=C/c2ccc(C#N)cc2)ncc1Cl |  | 
270 nM | > 10000 nM | 6840 nM | 310 nM | > 10000 nM |  |  |  |  |  |  |  | C/C(=N\Nc1ncc(Cl)c(Nc2ccccc2S(=O)(=O)C(C)C)n1)c1ccc(C#N)cc1 |  | 
34 nM | > 10000 nM | 2500 nM | 31 nM | 2120 nM | > 1000 nM | 80 nM | > 1000 nM | 4.9 nM | 4.7 nM | 20 |  | COc1ccc(/C(C)=N/Nc2ncc(Cl)c(Nc3ccccc3S(=O)(=O)C(C)C)n2)cc1 |  | 
22 nM | 5570 nM | 2230 nM | 44 nM | 1250 nM | 376 nM | 86 nM | 601 nM | 6.2 nM | 5.8 nM | 20 |  | COc1cccc(/C=N/Nc2ncc(Cl)c(Nc3ccccc3S(=O)(=O)C(C)C)n2)c1 |  | 
16 nM | 1760 nM | 1300 nM | 19 nM | 1400 nM | 220 nM | 45 nM | 570 nM | 2.3 nM | 1.8 nM | 20 | 9 | CC(C)S(=O)(=O)c1ccccc1Nc1nc(N/N=C/c2ccc(F)cc2)ncc1Cl |  | 
